# Assay results: patent US10894837B2, “MMP9 inhibitors and uses thereof in the prevention or treatment of a depigmenting disorder” (UNIVERSITE DE BORDEAUX, priority 2016, dated 2021)
# What was measured:
# Assay type in all cases: cell-based
# [1] = tested on: MMP9; assay: MMP9 levels by ELISA in cell-free supernatants of reconstructed human pigmented epidermis treated with TNFα and IFNγ; details: 24 h, 10 ng/ml TNFα and IFNγ, 1 μM and 10 μM inhibitor, ELISA in cell-free supernatants (FIG. 13B)
# Procedure: (§1) Reconstructed human pigmented epidermis were treated 24 h with or without 10 ng/ml of TNFα and IFNγ in the presence or absence of 1 μM and 10 μM of MMP9 inhibitors ab142180 or SB-CT. (A) Real-time PCR analysis of MMP9 gene expression. Results are expressed as a fold increase above control culture. GAPDH was used as a housekeeping gene. (B) Measurement of MMP9 levels by ELISA in cell-free supernatants.
# (§2) As discussed above, TNFα and IFNγ induce MMP9 gene expression in melanocyte. Inventors used two commercially available synthetic MMP9 inhibitors, SB3CT (a […]) and a selective MMP9 inhibitor (ab142180), to assess whether such inhibition could inhibit TNFα and IFNγ effects on depigmentation. In vitro reconstructed human epidermis containing melanocytes were stimulated with these two cytokines in the presence or absence of the two different MMP9 inhibitors for 24 h (FIG. 5). The combination of TNFα and IFNγ induced melanocyte detachment and E-cadherin inhibition.
# After 10 days of reconstruction (D10), reconstructed human pigmented epidermis (RHEm) are placed in 6 wells plate (NUNC reference 140675) in 2 ml of culture medium without hydrocortisone to which 10 ng/ml of interferon (IFN)-γ (R&D systems) and 10 ng/ml of “tumor necrosis factor (TNF)-α” (R&D systems) are added. A control condition without cytokines addition is performed. Each experimental condition is performed in duplicate or triplicate.
# [2] = tested on: MMP9 gene expression; assay: Real-time PCR analysis of MMP9 gene expression in reconstructed human pigmented epidermis treated with TNFα and IFNγ; details: 24 h, 10 ng/ml TNFα and IFNγ, 1 μM and 10 μM inhibitor, real-time PCR (FIG. 13A)
# Procedure: as §1, §2
# After 10 days of reconstruction (D10), reconstructed human pigmented epidermis (RHEm) are placed in 6 wells plate (NUNC reference 140675) in 2 ml of culture medium without hydrocortisone to which 10 ng/ml of interferon (IFN)-γ (R&D systems) and 10 ng/ml of “tumor necrosis factor (TNF)-α” (R&D systems) are added. A control condition without cytokines addition is performed. […]
# [3] = tested on: Reconstructed human epidermis containing melanocytes; assay: TNFα and IFNγ-induced melanocyte detachment in reconstructed human epidermis, immunofluorescence of melan-A and E-cadherin; details: 24 h, 20 ng/ml TNFα and IFNγ, 10 μM inhibitor (FIG. 5)
# Procedure: Reconstructed human epidermis containing melanocytes were stimulated 24 h with or without 20 ng/ml of TNFα and IFNγ in the presence or absence of 10 μM of MMP9 inhibitor ab142180 or SB-CT. Immunofluorescence microscopy analysis of melan-A (red) and E-cadherin (green) expression, Magnification 400×. White arrows show melanocytes that are detached from the basal layer of the epidermis.
# as §2
# Pigmented epidermis (RHEm) are reconstructed from normal human keratinocytes (NHEK) and from normal human melanocytes (NHEM), previously isolated from preputial samples. […]
# Then reading with a fluorescence microscope for the analysis of melanocytes detachment.
Compound,"MMP9 expression induced by the combination of IFNγ and TNFα, protein level (MMP9 production) [1]","MMP9 expression induced by the combination of IFNγ and TNFα, gene level [2]",TNFα and IFNγ-induced melanocyte detachment and E-cadherin inhibition [3],"MMP9 expression induced by the combination of IFNγ and TNFα, protein level (MMP9 production) ([1]; listed as SB-CT)"
"CCN(CC)Cc1cc(C)c(N(Cc2ccccc2)S(=O)(=O)c2ccc(OC)cc2)c(C(=O)NO)c1 [ab142180, 2-(N-benzyl-4-methoxyphenylsulfonamido)-5-((diethylamino)methyl)-N-hydroxy-3-methylbenzamide]",reduced,reduced,strongly inhibited,
"O=S(=O)(CC1CS1)c1ccc(Oc2ccccc2)cc1 (stereo not shown) [SB3CT, 2-[[(4-phenoxyphenyl)sulfonyl]methyl]-Thiirane]",reduced,reduced,strongly inhibited,reduces
